Experimental data taken from patent publication US20190224343A1, “CLEAVABLE COATING MATERIAL HAVING MICROBIAL FUNCTIONALITY” (ORIGINAL G B.V., priority 2012, published 2019).

Tested on: Staphylococcus aureus (clinical isolate)
Assay: Fluorescence imaging of coated orthopaedic plates, screws and catheters implanted in a human cadaver ankle after incubation with S. aureus isolate or NaCl
Settings: implants incubated with S. aureus, imaged 24 hours after implantation, excitation 710 nm, emission 800 nm
From the text: Orthopaedic plates, screws and catheters were coated with the polymer coating with compositions according to step (g). For example a polymer coating 1 g (i) was coated onto orthopaedic plates, screws and catheters in a continuous process.
First a solution of the polymer prepared in Example 1 g (i) was made by dissolving the polymer coating in water and then the plate and catheter were drawn through the solution of the polymer coating at a rate of 1 to 2 meters/second into an infrared dying oven of approximately 1 meter in length at about 100° C. The objects were completely covered indicating the application of a substantially uniform coating. This process was done according to the standard procedures in U.S. Pat. No. 7,442,205, Stents and methods for preparing stents from wires having hydrogel coating layers thereon. […]
Imaging of the objects implanted according to example 6 was performed 24 hours after implantation using an intra-operative clinical multispectral fluorescence camera (T3-imaging system, SurgOptix BV, Groningen, The Netherlands) and the IVIS Spectrum (excitation: 710 nm, emission: 800 nm, acquisition time 5 s, binning 4, F-stop 2, FOV 21.2).
The results obtained from the IVIS Spectrum and IVIS Lumina II were analyzed with Living Image 4.2. […] Signal intensity was determined by drawing regions of interests (ROI's) and measuring average counts in these regions. […]

CC1(C)C(=CC=C2CCCC(C=CC3=[N+](CCCCCC(=O)[O-])c4ccc(S(=O)(=O)[O-])cc4C3(C)C)=C2Oc2ccc(S(=O)(=O)[O-])cc2)N(CCCCS(=O)(=O)[O-])c2ccc(S(=O)(=O)[O-])cc21.[Na+].[Na+].[Na+].[Na+] [IRDye 800CW]
near infrared signal (net counts, background corrected): 1×10^5±4.2×10^4 counts
